Patent US7416885B2, “Proliferated cell lines and uses thereof” (University of South Florida, priority 2002, dated 2008)

Legend:
[1] = test system: RCVC cells; assay: 45Ca2+ influx in RCVC cells; format: cell-based, rat; settings: normally polarized cells
[2] = test system: RCSN-3 cells; assay: melanin fluorescence in RCSN-3 cells preincubated with L-Dopa; format: cell-based, rat; settings: for melanin, mean: L-DOPA, n 3 (ANOVA summary); for melanin, Average: L-DOPA (+), 100 microM, 24 hrs
Description: RCSN-3 cells were preincubated for 24 hrs in the presence of 100 microM L-Dopa. Cells were lysed with a hypotonic buffer. […] Oxidation of melanin in vitro degraded the melanin polymer, resulting in a fluorescent solution. Fluorescence spectroscopy gave an excitation maximum at approximately 470 nm and an emission maximum at approximately 540 nm for both natural and synthetic melanin. Increasing the time of exposure to light or hydrogen peroxide increased melanin fluorescence (Kayatz, P et al., Invest Ophthalmol Vis Sci, January 2001,42(1):241–6).

[3] = test system: RCSN-3 cells
[4] = test system: RCSN-3 cells; remark: listed apart in the source
[5] = test system: MAO B activity in RCSN-3 cell lysates; assay: MPP+ production by RCSN-3 cell lysates incubated with MPTP (HPLC); format: biochemical, rat
Description: To verify if RCSN-3 cells can produce MPP^+ from MPTP, lisates of RCSN-3 cells (differentiated and non-differentiated) were incubated with MPTP. Differentiation was induced by culturing in F10 media+2% adult bovine serum for one week. Non-differentiated conditions were attained with F10 media+10% adult bovine serum and 2.5% fetal bovine serum. Lisate buffer was PBS with 50 μM PMSF and a protease inhibiting cocktail (leupeptin, pepstatine, chemostatin). Samples were incubated with MPTP and MPP^+ for 15 min. at 37° C. HPLC studies were carried out in a SHIMADZU HPLC with […], reading at 245 nm. Results are shown in FIGS. 16A–C, FIGS. 17A–D, and FIGS. 18A–C.

[6] = target: T1, receptors for dihydropyridines (Homo sapiens, UniProt Q13698); assay: dihydropyridine ([3H]PN200-110) binding to RCMH cells
T1 construct: endogenous in cells; host or cells: RCMH (immortalized human skeletal muscle cell line)

[7] = target: microsomal fraction from RCVC cells (Rattus norvegicus, UniProt P22002); assay: 3H-nitrendipine binding to microsomal fraction of RCVC cells; settings: read-out: equilibrium dissociation constant
[8] = test system: RCSN cells; assay: intracellular Ca2+ imaging in Fluo-3 loaded RCSN cells; format: cell-based, rat; settings: differentiated cells, 200 μM glutamate applied externally
[9] = test system: UCHCC1 cells; format: cell-based, rat; settings: read-out: half-maximal inhibitory concentration
[10] = target: single class of receptors for [3H]en-TTX; format: binding, rat
[11] = target: receptors for α-bungarotoxin (Homo sapiens, UniProt P02708+P07510+Q07001); format: binding
Sequence of receptors for α-bungarotoxin (P02708 21-457 limits assumed): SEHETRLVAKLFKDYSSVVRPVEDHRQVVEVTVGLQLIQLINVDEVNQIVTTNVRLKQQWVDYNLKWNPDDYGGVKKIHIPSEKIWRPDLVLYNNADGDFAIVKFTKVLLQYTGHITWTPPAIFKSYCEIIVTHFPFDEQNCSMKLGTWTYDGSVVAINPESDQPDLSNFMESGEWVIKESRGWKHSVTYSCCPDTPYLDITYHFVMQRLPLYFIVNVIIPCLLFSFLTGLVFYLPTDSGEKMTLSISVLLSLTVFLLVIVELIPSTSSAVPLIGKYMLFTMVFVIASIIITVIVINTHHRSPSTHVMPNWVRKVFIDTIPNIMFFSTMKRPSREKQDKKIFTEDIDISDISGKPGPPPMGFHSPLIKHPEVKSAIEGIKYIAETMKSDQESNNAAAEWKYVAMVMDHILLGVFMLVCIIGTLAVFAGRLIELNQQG
Sequence of receptors for α-bungarotoxin (P07510 23-517 limits assumed): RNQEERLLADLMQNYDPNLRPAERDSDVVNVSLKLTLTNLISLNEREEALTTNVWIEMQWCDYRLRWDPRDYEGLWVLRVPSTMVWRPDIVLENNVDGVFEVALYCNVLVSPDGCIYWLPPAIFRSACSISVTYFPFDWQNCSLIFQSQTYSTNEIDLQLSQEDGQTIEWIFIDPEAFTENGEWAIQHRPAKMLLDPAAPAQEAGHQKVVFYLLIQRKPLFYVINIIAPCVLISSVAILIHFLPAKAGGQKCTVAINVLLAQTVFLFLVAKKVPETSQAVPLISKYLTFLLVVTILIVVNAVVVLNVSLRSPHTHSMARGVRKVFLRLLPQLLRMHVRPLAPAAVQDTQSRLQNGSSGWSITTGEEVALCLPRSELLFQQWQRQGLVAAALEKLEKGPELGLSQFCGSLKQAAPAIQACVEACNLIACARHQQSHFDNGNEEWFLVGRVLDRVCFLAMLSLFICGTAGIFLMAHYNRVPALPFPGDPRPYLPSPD
Sequence of receptors for α-bungarotoxin (Q07001 22-517 limits assumed): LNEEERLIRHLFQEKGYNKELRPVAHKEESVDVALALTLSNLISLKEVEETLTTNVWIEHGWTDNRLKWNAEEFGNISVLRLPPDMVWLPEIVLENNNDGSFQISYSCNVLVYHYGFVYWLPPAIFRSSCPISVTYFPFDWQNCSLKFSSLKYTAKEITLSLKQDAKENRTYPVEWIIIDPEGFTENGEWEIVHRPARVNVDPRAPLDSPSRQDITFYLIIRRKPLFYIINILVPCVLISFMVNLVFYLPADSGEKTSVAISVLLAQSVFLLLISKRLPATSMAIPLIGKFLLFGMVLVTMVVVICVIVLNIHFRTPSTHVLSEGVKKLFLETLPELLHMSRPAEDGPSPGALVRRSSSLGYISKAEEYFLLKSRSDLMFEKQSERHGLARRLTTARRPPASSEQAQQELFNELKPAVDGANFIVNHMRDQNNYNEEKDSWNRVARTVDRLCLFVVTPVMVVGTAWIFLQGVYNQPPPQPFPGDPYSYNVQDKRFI

T1 sequence (Q13698 whole entry): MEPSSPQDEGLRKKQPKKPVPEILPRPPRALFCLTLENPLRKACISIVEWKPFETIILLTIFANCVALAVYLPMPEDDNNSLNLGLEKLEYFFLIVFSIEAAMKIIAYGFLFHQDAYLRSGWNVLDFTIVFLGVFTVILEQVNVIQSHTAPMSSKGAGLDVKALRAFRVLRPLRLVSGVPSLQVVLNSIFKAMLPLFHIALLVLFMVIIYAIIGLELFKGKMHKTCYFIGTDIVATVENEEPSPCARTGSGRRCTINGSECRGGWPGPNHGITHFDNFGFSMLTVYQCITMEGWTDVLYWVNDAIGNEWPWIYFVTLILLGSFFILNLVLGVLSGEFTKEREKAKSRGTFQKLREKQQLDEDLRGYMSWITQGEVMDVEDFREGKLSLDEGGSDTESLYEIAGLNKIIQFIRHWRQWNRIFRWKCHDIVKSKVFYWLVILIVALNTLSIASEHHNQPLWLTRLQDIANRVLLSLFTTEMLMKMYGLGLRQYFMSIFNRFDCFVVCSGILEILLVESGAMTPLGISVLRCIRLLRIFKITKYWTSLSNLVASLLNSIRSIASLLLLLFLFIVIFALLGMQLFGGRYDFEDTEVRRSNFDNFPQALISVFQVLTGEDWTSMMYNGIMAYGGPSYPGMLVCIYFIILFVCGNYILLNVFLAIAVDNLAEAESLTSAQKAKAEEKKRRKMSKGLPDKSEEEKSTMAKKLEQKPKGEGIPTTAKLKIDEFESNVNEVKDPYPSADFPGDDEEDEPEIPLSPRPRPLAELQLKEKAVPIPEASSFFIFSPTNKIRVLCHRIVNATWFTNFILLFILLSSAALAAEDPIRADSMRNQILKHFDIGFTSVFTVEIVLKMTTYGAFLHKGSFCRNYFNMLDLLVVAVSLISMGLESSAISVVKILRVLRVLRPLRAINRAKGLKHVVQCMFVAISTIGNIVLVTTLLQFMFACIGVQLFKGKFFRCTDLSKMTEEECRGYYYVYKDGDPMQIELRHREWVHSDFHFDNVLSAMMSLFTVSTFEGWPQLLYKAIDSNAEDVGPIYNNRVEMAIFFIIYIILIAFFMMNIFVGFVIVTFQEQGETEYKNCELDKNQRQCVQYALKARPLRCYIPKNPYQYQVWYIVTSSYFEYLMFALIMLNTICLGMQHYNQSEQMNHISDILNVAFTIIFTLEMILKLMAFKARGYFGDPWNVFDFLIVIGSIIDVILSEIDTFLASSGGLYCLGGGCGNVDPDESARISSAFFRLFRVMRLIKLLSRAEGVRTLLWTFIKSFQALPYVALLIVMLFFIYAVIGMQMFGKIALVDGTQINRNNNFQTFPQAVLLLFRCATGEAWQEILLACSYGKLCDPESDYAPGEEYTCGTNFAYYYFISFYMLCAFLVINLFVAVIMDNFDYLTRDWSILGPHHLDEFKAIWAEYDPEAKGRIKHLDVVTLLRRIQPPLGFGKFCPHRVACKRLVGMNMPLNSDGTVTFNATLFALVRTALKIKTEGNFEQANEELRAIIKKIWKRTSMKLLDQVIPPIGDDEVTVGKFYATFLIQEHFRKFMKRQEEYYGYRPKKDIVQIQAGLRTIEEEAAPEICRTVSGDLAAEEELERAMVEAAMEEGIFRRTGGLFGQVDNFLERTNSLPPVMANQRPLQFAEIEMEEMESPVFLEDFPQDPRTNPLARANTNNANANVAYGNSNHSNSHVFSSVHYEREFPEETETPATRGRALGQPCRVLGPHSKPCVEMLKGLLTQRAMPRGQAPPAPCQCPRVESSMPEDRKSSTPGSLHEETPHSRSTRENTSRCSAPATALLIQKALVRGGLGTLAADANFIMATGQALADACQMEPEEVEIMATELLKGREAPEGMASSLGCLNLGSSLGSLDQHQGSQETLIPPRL

COC(=O)C1=C(C)NC(C)=C([N+](=O)[O-])C1c1ccccc1C(F)(F)F (centres unmarked) [BAYK-8644]
45Ca2+ influx induced by calcium channel agonist [1]: equivalent influx

CCOC(=O)C1=C(C)NC2=C(C(=O)OC2)C1c1ccccc1OC(F)F (centres unmarked) [CGP-28392]
45Ca2+ influx induced by calcium channel agonist [1]: equivalent influx

N[C@@H](Cc1ccc(O)c(O)c1)C(=O)O [L-DOPA, levodopa]
melanin, mean ([2]; Glass): 0.03305 | melanin, mean ([2]; Plastic): 0.04045 | melanin, Average ([2]; glass dishes): 0.033 | melanin, Average ([2]; plastic dishes): 0.040

C[n+]1ccc(-c2ccccc2)cc1 [MPP+, 1-methyl-4-phenylpyridinium]
DNA fragmentation (TUNEL) [3]: fragmentation of DNA | mitochondrial membrane potential (JC-1 fluorescence) [4]: affects mitochondrial function | ratio of emission between JC-1 and J monomer, normalized to basal fluorescence [4]: significant differences from controls

CN1CC=C(c2ccccc2)CC1 [MPTP, 1-methyl-4-phenyl-1,2,3,6-tetrahydropyridine]
production of MPP+ from MPTP [5]: no production of MPP^+

COC(=O)C1=C(C)NC(C)=C(C(=O)OC(C)C)C1c1cccc2nonc12 (centres unmarked) [[^3H]PN200-110]
Bmax [6]: 0.3 pmol/mg protein | Kd [6]: 0.5 nM

CCOC(=O)C1=C(C)NC(C)=C(C(=O)OC)C1c1cccc([N+](=O)[O-])c1 (centres unmarked) [^3H-nitrendipine, nitrendipine]
Kd [7]: 0.7 nM

NCCc1ccc(O)c(O)c1 [dopamine]
mitochondrial membrane potential (JC-1 fluorescence) [4]: decrease in membrane potential | ratio of emission between JC-1 and J monomer, normalized to basal fluorescence [4]: significant differences from controls

N[C@@H](CCC(=O)O)C(=O)O [glutamate]
cells responding with increases in Ca2+ [8]: up to 40%

[Mn+2] [manganese]
mitochondrial membrane potential (JC-1 fluorescence) [4]: decrease in membrane potential | ratio of emission between JC-1 and J monomer, normalized to basal fluorescence [4]: significant differences from controls

NC1=N[C@H](O)[C@H]2[C@H]3O[C@]4(O)O[C@@H]([C@@H](O)[C@@]2(N1)[C@@H]4O)[C@]3(O)CO [tetrodotoxin]
IC50 [9]: 0.9 nM

[^3H]ethylenediamine-tetrodotoxin [[^3H]en-TTX]
Kd [10]: 1.1 nM | maximal binding (Bmax) [10]: 173 fmol/mg protein

α-bungarotoxin
Bmax [11]: 0.7 pmol/mg protein | Kd [11]: 1.5 nM
